Laboratory results reported in patent US8192962B2, “Processes for detecting toxic substances” (Daikin Industries, Ltd., priority 2001, dated 2012).

Test system: Stress protein genes
Experiment: DNA chip mRNA expression in yeast, stress protein genes (Table 6)
Type: cell-based, Saccharomyces cerevisiae S288C
How it was run: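 Ratios compare mRNA levels in stressed and control S. cerevisiae. Each toxicant was applied for two hours to log-phase cultures at 25° C. at a sub-lethal, growth-inhibiting level; fluorescent cDNA (Cy3- or Cy5-dUTP) was hybridized to a genome-wide yeast chip for over 12 h at 65° C.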

## Oc1cc(Cl)c(Cl)cc1Cl [(6), 2,4,5-trichlorophenol]
Yeast gene YAL005C
  The level of expressed mRNA in the presence of chemical substance/The level of expressed mRNA in the absence of chemical substance: 1.6
Yeast gene YAL015C
  The level of expressed mRNA in the presence of chemical substance/The level of expressed mRNA in the absence of chemical substance: 0.7
Yeast gene YBL075C
  The level of expressed mRNA in the presence of chemical substance/The level of expressed mRNA in the absence of chemical substance: 0.8
Yeast gene YBL093C
  The level of expressed mRNA in the presence of chemical substance/The level of expressed mRNA in the absence of chemical substance: 0.8
Yeast gene YBR044C
  The level of expressed mRNA in the presence of chemical substance/The level of expressed mRNA in the absence of chemical substance: 1.0
Yeast gene YBR054W
  The level of expressed mRNA in the presence of chemical substance/The level of expressed mRNA in the absence of chemical substance: 1.1
Yeast gene YBR067C
  The level of expressed mRNA in the presence of chemical substance/The level of expressed mRNA in the absence of chemical substance: 1.1
Yeast gene YBR072W
  The level of expressed mRNA in the presence of chemical substance/The level of expressed mRNA in the absence of chemical substance: 32.2
Yeast gene YBR126C
  The level of expressed mRNA in the presence of chemical substance/The level of expressed mRNA in the absence of chemical substance: 2.9
Yeast gene YBR169C
  The level of expressed mRNA in the presence of chemical substance/The level of expressed mRNA in the absence of chemical substance: 4.9
Yeast gene YCL035C
  The level of expressed mRNA in the presence of chemical substance/The level of expressed mRNA in the absence of chemical substance: 5.1
Yeast gene YCR021C
  The level of expressed mRNA in the presence of chemical substance/The level of expressed mRNA in the absence of chemical substance: 2.2
Yeast gene YCR060W
  The level of expressed mRNA in the presence of chemical substance/The level of expressed mRNA in the absence of chemical substance: 3.3
Yeast gene YCR083W
  The level of expressed mRNA in the presence of chemical substance/The level of expressed mRNA in the absence of chemical substance: 2.4
Yeast gene YDL022W
  The level of expressed mRNA in the presence of chemical substance/The level of expressed mRNA in the absence of chemical substance: 2.1
Yeast gene YDL025C
  The level of expressed mRNA in the presence of chemical substance/The level of expressed mRNA in the absence of chemical substance: 0.6
Yeast gene YDR033W
  The level of expressed mRNA in the presence of chemical substance/The level of expressed mRNA in the absence of chemical substance: 6.7
Yeast gene YDR077W
  The level of expressed mRNA in the presence of chemical substance/The level of expressed mRNA in the absence of chemical substance: 1.0
Yeast gene YDR098C
  The level of expressed mRNA in the presence of chemical substance/The level of expressed mRNA in the absence of chemical substance: 1.1
Yeast gene YDR155C
  The level of expressed mRNA in the presence of chemical substance/The level of expressed mRNA in the absence of chemical substance: 1.5
Yeast gene YDR258C
  The level of expressed mRNA in the presence of chemical substance/The level of expressed mRNA in the absence of chemical substance: 2.4
Yeast gene YDR293C
  The level of expressed mRNA in the presence of chemical substance/The level of expressed mRNA in the absence of chemical substance: 0.9
Yeast gene YDR436W
  The level of expressed mRNA in the presence of chemical substance/The level of expressed mRNA in the absence of chemical substance: 1.1
Yeast gene YDR513W
  The level of expressed mRNA in the presence of chemical substance/The level of expressed mRNA in the absence of chemical substance: 2.1
Yeast gene YDR519W
  The level of expressed mRNA in the presence of chemical substance/The level of expressed mRNA in the absence of chemical substance: 1.3
Yeast gene YEL030W
  The level of expressed mRNA in the presence of chemical substance/The level of expressed mRNA in the absence of chemical substance: 0.6
Yeast gene YEL039C
  The level of expressed mRNA in the presence of chemical substance/The level of expressed mRNA in the absence of chemical substance: 1.5
Yeast gene YER042W
  The level of expressed mRNA in the presence of chemical substance/The level of expressed mRNA in the absence of chemical substance: 1.6
Yeast gene YER057C
  The level of expressed mRNA in the presence of chemical substance/The level of expressed mRNA in the absence of chemical substance: 1.6
Yeast gene YER103W
  The level of expressed mRNA in the presence of chemical substance/The level of expressed mRNA in the absence of chemical substance: 1.7
Yeast gene YER125W
  The level of expressed mRNA in the presence of chemical substance/The level of expressed mRNA in the absence of chemical substance: 0.7
Yeast gene YFL014W
  The level of expressed mRNA in the presence of chemical substance/The level of expressed mRNA in the absence of chemical substance: 9.3
Yeast gene YFL016C
  The level of expressed mRNA in the presence of chemical substance/The level of expressed mRNA in the absence of chemical substance: 1.3
Yeast gene YFL020C
  The level of expressed mRNA in the presence of chemical substance/The level of expressed mRNA in the absence of chemical substance: 2.0
Yeast gene YFR052W
  The level of expressed mRNA in the presence of chemical substance/The level of expressed mRNA in the absence of chemical substance: 3.2
Yeast gene YGL073W
  The level of expressed mRNA in the presence of chemical substance/The level of expressed mRNA in the absence of chemical substance: 1.9
Yeast gene YGL115W
  The level of expressed mRNA in the presence of chemical substance/The level of expressed mRNA in the absence of chemical substance: 1.2
Yeast gene YGL181W
  The level of expressed mRNA in the presence of chemical substance/The level of expressed mRNA in the absence of chemical substance: 1.9
Yeast gene YGR088W
  The level of expressed mRNA in the presence of chemical substance/The level of expressed mRNA in the absence of chemical substance: 1.3
Yeast gene YHL028W
  The level of expressed mRNA in the presence of chemical substance/The level of expressed mRNA in the absence of chemical substance: 1.8
Yeast gene YHL046C
  The level of expressed mRNA in the presence of chemical substance/The level of expressed mRNA in the absence of chemical substance: 0.8
Yeast gene YHR030C
  The level of expressed mRNA in the presence of chemical substance/The level of expressed mRNA in the absence of chemical substance: 0.9
Yeast gene YHR057C
  The level of expressed mRNA in the presence of chemical substance/The level of expressed mRNA in the absence of chemical substance: 1.3
Yeast gene YHR104W
  The level of expressed mRNA in the presence of chemical substance/The level of expressed mRNA in the absence of chemical substance: 1.2
Yeast gene YIL011W
  The level of expressed mRNA in the presence of chemical substance/The level of expressed mRNA in the absence of chemical substance: 0.7
Yeast gene YIL033C
  The level of expressed mRNA in the presence of chemical substance/The level of expressed mRNA in the absence of chemical substance: 2.0
Yeast gene YIR037W
  The level of expressed mRNA in the presence of chemical substance/The level of expressed mRNA in the absence of chemical substance: 2.7
Yeast gene YIR038C
  The level of expressed mRNA in the presence of chemical substance/The level of expressed mRNA in the absence of chemical substance: 2.5
Yeast gene YJL128C
  The level of expressed mRNA in the presence of chemical substance/The level of expressed mRNA in the absence of chemical substance: 1.3
Yeast gene YJL158C
  The level of expressed mRNA in the presence of chemical substance/The level of expressed mRNA in the absence of chemical substance: 0.5
Yeast gene YJL159W
  The level of expressed mRNA in the presence of chemical substance/The level of expressed mRNA in the absence of chemical substance: 1.8
Yeast gene YJL165C
  The level of expressed mRNA in the presence of chemical substance/The level of expressed mRNA in the absence of chemical substance: 0.5
Yeast gene YJR045C
  The level of expressed mRNA in the presence of chemical substance/The level of expressed mRNA in the absence of chemical substance: 1.2
Yeast gene YJR090C
  The level of expressed mRNA in the presence of chemical substance/The level of expressed mRNA in the absence of chemical substance: 1.2
Yeast gene YKL161C
  The level of expressed mRNA in the presence of chemical substance/The level of expressed mRNA in the absence of chemical substance: 2.0
Yeast gene YKL163W
  The level of expressed mRNA in the presence of chemical substance/The level of expressed mRNA in the absence of chemical substance: 1.1
Yeast gene YKL164C
  The level of expressed mRNA in the presence of chemical substance/The level of expressed mRNA in the absence of chemical substance: 1.4
Yeast gene YKL210W
  The level of expressed mRNA in the presence of chemical substance/The level of expressed mRNA in the absence of chemical substance: 1.4
Yeast gene YKR053C
  The level of expressed mRNA in the presence of chemical substance/The level of expressed mRNA in the absence of chemical substance: 1.1
Yeast gene YLL024C
  The level of expressed mRNA in the presence of chemical substance/The level of expressed mRNA in the absence of chemical substance: 1.0
Yeast gene YLL026W
  The level of expressed mRNA in the presence of chemical substance/The level of expressed mRNA in the absence of chemical substance: 1.9
Yeast gene YLL039C
  The level of expressed mRNA in the presence of chemical substance/The level of expressed mRNA in the absence of chemical substance: 1.5
Yeast gene YLL060C
  The level of expressed mRNA in the presence of chemical substance/The level of expressed mRNA in the absence of chemical substance: 1.4
Yeast gene YLR006C
  The level of expressed mRNA in the presence of chemical substance/The level of expressed mRNA in the absence of chemical substance: 0.9
Yeast gene YLR109W
  The level of expressed mRNA in the presence of chemical substance/The level of expressed mRNA in the absence of chemical substance: 2.1
Yeast gene YLR259C
  The level of expressed mRNA in the presence of chemical substance/The level of expressed mRNA in the absence of chemical substance: 0.9
Yeast gene YML007W
  The level of expressed mRNA in the presence of chemical substance/The level of expressed mRNA in the absence of chemical substance: 0.5
Yeast gene YML070W
  The level of expressed mRNA in the presence of chemical substance/The level of expressed mRNA in the absence of chemical substance: 2.2
Yeast gene YMR021C
  The level of expressed mRNA in the presence of chemical substance/The level of expressed mRNA in the absence of chemical substance: 2.2
Yeast gene YMR173W
  The level of expressed mRNA in the presence of chemical substance/The level of expressed mRNA in the absence of chemical substance: 5.0
Yeast gene YMR186W
  The level of expressed mRNA in the presence of chemical substance/The level of expressed mRNA in the absence of chemical substance: 1.3
Yeast gene YNL064C
  The level of expressed mRNA in the presence of chemical substance/The level of expressed mRNA in the absence of chemical substance: 0.8
Yeast gene YNL160W
  The level of expressed mRNA in the presence of chemical substance/The level of expressed mRNA in the absence of chemical substance: 5.8
Yeast gene YNL241C
  The level of expressed mRNA in the presence of chemical substance/The level of expressed mRNA in the absence of chemical substance: 0.9
Yeast gene YNR076W
  The level of expressed mRNA in the presence of chemical substance/The level of expressed mRNA in the absence of chemical substance: 1.2
Yeast gene YOL064C
  The level of expressed mRNA in the presence of chemical substance/The level of expressed mRNA in the absence of chemical substance: 1.4
Yeast gene YOL161C
  The level of expressed mRNA in the presence of chemical substance/The level of expressed mRNA in the absence of chemical substance: 1.0
Yeast gene YOR008C
  The level of expressed mRNA in the presence of chemical substance/The level of expressed mRNA in the absence of chemical substance: 1.1
Yeast gene YOR009W
  The level of expressed mRNA in the presence of chemical substance/The level of expressed mRNA in the absence of chemical substance: 0.9
Yeast gene YOR010C
  The level of expressed mRNA in the presence of chemical substance/The level of expressed mRNA in the absence of chemical substance: 0.5
Yeast gene YOR027W
  The level of expressed mRNA in the presence of chemical substance/The level of expressed mRNA in the absence of chemical substance: 1.6
Yeast gene YOR208W
  The level of expressed mRNA in the presence of chemical substance/The level of expressed mRNA in the absence of chemical substance: 1.8
Yeast gene YPL059W
  The level of expressed mRNA in the presence of chemical substance/The level of expressed mRNA in the absence of chemical substance: 1.3
Yeast gene YPL106C
  The level of expressed mRNA in the presence of chemical substance/The level of expressed mRNA in the absence of chemical substance: 1.6
Yeast gene YPL140C
  The level of expressed mRNA in the presence of chemical substance/The level of expressed mRNA in the absence of chemical substance: 0.3
Yeast gene YPL194W
  The level of expressed mRNA in the presence of chemical substance/The level of expressed mRNA in the absence of chemical substance: 1.1
Yeast gene YPL223C
  The level of expressed mRNA in the presence of chemical substance/The level of expressed mRNA in the absence of chemical substance: 1.5
Yeast gene YPL240C
  The level of expressed mRNA in the presence of chemical substance/The level of expressed mRNA in the absence of chemical substance: 1.2
Yeast gene YPR005C
  The level of expressed mRNA in the presence of chemical substance/The level of expressed mRNA in the absence of chemical substance: 0.8
